Laboratory results published in publication PMC11110763, “Carltonine-derived compounds for targeted butyrylcholinesterase inhibition” (RSC Medicinal Chemistry, 2024).
≈ marks a conversion by molar mass, not a printed value.

Key:
[1] = Cytotoxicity MTT assay, human neuroblastoma cell line; conditions: SH-SY5Y neuroblastoma cells
[2] = PAMPA assay (BBB penetration); conditions: for Pe ± SEM: PAMPA, PBS pH 7.4, n = 3; for BBB penetration estimation CNS (+/−): class from PAMPA Pe
Source text: Furthermore, we experimentally determined the ability of 12 highlighted hBChE inhibitors to pass through the BBB using a parallel artificial membrane permeation assay (PAMPA) as described by Di et al.[65] […] The methodology was validated on a set of compounds (positive and negative controls) recognized for their activity in the CNS (Table 3).
In this study, it has been used as a non-cell-based in vitro assay carried out in a coated 96-well membrane filter. The filter membrane of the donor plate was coated with PBL (polar brain lipid, Avanti, USA) in dodecane (4 μl of 20 mg ml^−1 PBL in dodecane) and the acceptor well was filled with 300 μl of PBS (pH 7.4; VA). The tested compounds were dissolved first in DMSO and subsequently diluted with PBS (pH 7.4) to final concentrations of 50–100 μM in the donor wells. […] About 300 μL of the donor solution was added to the donor wells (VD) and the donor filter plate was carefully put on the acceptor plate so that the coated membrane was “in touch” with both the donor solution and acceptor buffer. In principle, the test compound diffused from the donor well through the lipid membrane (area = 0.28 cm^2) to the acceptor well. The concentration of the drug in both the donor and acceptor wells was assessed after 3, 4, 5, and 6 h of incubation in quadruplicate using the UV plate reader Spark (Tecan Group Ltd, Switzerland) at the maximum absorption wavelength of each compound. Besides that, a solution of theoretical compound concentration, simulating the equilibrium state established if the membrane were ideally permeable, was prepared and assessed as well. The concentration of the compounds in the donor and acceptor wells and equilibrium concentration were calculated from the standard curve and expressed as the permeability (Pe) according the equation: [drawing 10] where [drawing 11]

[3] = biological target: T1, recombinant BChE (hBChE, E.C. 3.1.1.8) (Homo sapiens, UniProt P06276); test: biochemical; assay type: biochemical; conditions: for IC50: mean ± SEM of three independent measurements, each in triplicate; for inhibition at 10 µM: tested at 10 μM compound concentration, read-out: % inhibition of hBChE ± SEM
T1 construct: purchased Sigma-Aldrich, Prague, Czech Republic
Procedure: The activities of hAChE and hBChE were determined using a modified Ellman's method, as described in ref. [56] and [62] against recombinant AChE (hAChE, E.C. 3.1.1.7) and recombinant BChE (hBChE, E.C. 3.1.1.8), both of which were purchased from Sigma-Aldrich, Prague, Czech Republic. […] The other compounds used, including the phosphate buffer solution (PBS, pH = 7.4), 5,5′-dithio-bis(2-nitrobenzoic) acid (Ellman's reagent, DTNB), acetylthiocholine (ATChI), and butyrylthiocholine (BTChI), were commercially available and purchased from Sigma-Aldrich in Prague, Czech Republic. In brief, the corresponding enzyme (8.3 μL), 5 mM DTNB (283 μL), and the sample dilution in dimethyl sulfoxide (DMSO) at various concentrations (8.3 μL) were added to 96-well microplates (BRAND GMBH + CO KG, Wertheim, Germany) and pre-incubated for 5 minutes in the assay medium. The reaction was initiated by adding 10 mM substrate (ATChI or BTChI, 33.3 μL). […] Each measurement was repeated in triplicate. The percentage of inhibition was calculated using the following formula: [drawing 8] where ΔABl represents the increase in absorbance of the blank sample, and ΔASa represents the increase in absorbance of the measured sample. […] Microsoft Excel (Redmond, WA, USA) and GraphPad Prism version 7 for Windows (GraphPad Software, San Diego, CA, USA) were used for the statistical data evaluation.

[4] = in vitro; conditions: human, HepG2 hepatocellular carcinoma cells
Procedure: (§1) For passaging, the cells were treated with trypsin/EDTA (Sigma-Aldrich, St. Louis, USA) at 37 °C and then harvested. For cytotoxicity evaluation, the cells treated with the studied substances were used, while untreated HepG2 cells served as the control group. The cells were seeded in a 96-well plate at a density of 5 × 10^4 cells per well and incubated for 24 hours. All tested compounds were dissolved in DMSO to prepare 10 mM stock solutions and subsequently diluted to the desired concentration just before the cell treatment (the highest DMSO concentration used was 0.5% v/v). Positive and negative controls were included, as well, and the activity of all the samples was determined in triplicate. Plates were incubated for 24 h in a humidified atmosphere containing 5% CO2 at 37 °C. […] Afterwards, the formazan crystals were dissolved in DMSO, and the absorbance of samples was recorded at 570 nm (BioTek, Synergy Neo2 Multi-Mode Reader NEO2SMALPHAB; BioTek, Winooski, VT, USA). IC50 values were calculated by nonlinear regression from a semi-logarithmic plot of incubation concentration versus percentage of absorbance relative to untreated controls using GraphPad Prism software (version 9; GraphPad Software, Inc., La Jolla, CA, USA).

[5] = tested on: HepG2 cells; conditions: human, 24 h
Procedure: as §1

[6] = Human liver microsomal (HLM) stability; assay type: in vitro ADME; conditions: pooled human liver microsomes
Procedure: Briefly, compounds were dissolved in DMSO to produce stock sample solutions. […] Subsequently, 400 μL of supernatant was transferred to the vial and analyzed by LC-MS. Three types of blank samples were prepared in the same way, with a one-step exception. In the biological blank sample, 5 μL of DMSO was added instead of 5 μL stock solution, in the chemical blanks, 50 μL of water was added instead of HLM, and in the case of the control blank sample, 25 μL of water was added instead of 25 μL of RapidStart System.
A Reverse-phase C18 column Kinetex EVO (Phenomenex, Torrance, CA, USA) was used as a stationary phase, and purified water with 0.1% formic acid (mobile phase A) and LC-MS grade acetonitrile with 0.1% formic acid (mobile phase B) were used as the mobile phases. […] The column temperature was kept constant at 27 °C, the flow of the mobile phase was 0.5 mL min^−1, and the injection volume was 1 μL. […]
The peak areas of the compounds (Acmp) and internal standards (AIS) were detected in positive mode in extracted ion chromatograms from the mass spectrometer data. For the determination of microsomal stability, the Acmp/AIS was calculated as logarithmized. […]

[7] = biological target: hBChE (Homo sapiens, UniProt P06276); test: Enzyme kinetic analysis of hBChE inhibition; assay type: biochemical
Procedure: A kinetic study was performed to estimate the interaction mode of derivative 33 with hBChE. The inhibition kinetics was calculated from rate curves that were determined at several concentrations of the tested compound and substrate. The type of enzyme inhibition and appropriate kinetic parameters (Ki and Ki′) were determined using nonlinear regression analysis. Results for each type of inhibition model (competitive, non-competitive, uncompetitive and mixed) were compared by the sum-of-squares F-test. […].
The kinetic study of hBChE was conducted using the modified Ellman's method mentioned earlier,[62,74,75] with slight variations applied at the collaborating laboratory. Solutions of the corresponding ChE in phosphate buffer (PB) were prepared to achieve a final activity of 0.002 U μL^−1. The solutions of the tested compounds (8.3 μL at varying concentrations) were pre-incubated for 5 minutes in the assay medium. […] The increase in absorbance was measured for 1 minute at 412 nm using the Multimode microplate reader Synergy 2 (BioTek Inc., Winooski, VT, USA). Nunc flat-bottomed polystyrene 96-well microplates (ThermoFisher Scientific, USA) were used for these measurements. To calculate the resulting measured activity (expressed as the percentage of inhibition I), the following formula was applied: [drawing 9] where ΔAi indicates the absorbance change provided by adequate enzyme exposed to the corresponding inhibitor and ΔA0 indicates the absorbance change when a solution of PB was added instead of a solution of the inhibitor. Microsoft Excel (Redmond, WA, USA) and GraphPad Prism version 8.30 for Windows (GraphPad Software, San Diego, CA, USA) were employed for the statistical data analysis. The values of Vmax and Km for the Michaelis–Menten kinetics, as well as the values of Ki (enzyme–inhibitor dissociation constant) and Ki′ (enzyme–substrate–inhibitor dissociation constant), were calculated through nonlinear regression from the substrate velocity curves. Linear regression was used for the calculation of Lineweaver–Burk plots. […]

[8] = Aqueous solubility determination; assay type: physicochemical; conditions: ultrapure distilled water containing 5% DMSO, 37 °C
Procedure: Briefly, 200 μl of the aqueous solution of compound 33 at the concentration of 50 μM was analyzed for the UV/vis absorption spectrum using a multimode microplate reader (TECAN Spark®, Tecan Group Ltd., Switzerland) and the wavelength of maximum absorbance was used for further testing of the corresponding compound. Subsequently, six consecutive concentrations were prepared for the compound by serial dilution of 50 μM standard solution and the absorbance of these solutions (200 μl) was measured by a microplate reader. The data were used to calculate the calibration curve by the linear regression method. Finally, the over-saturated solutions of the tested compound were prepared and incubated in an ultrasound water bath at 37 °C for 10 min. Then the solutions were centrifuged at 8000 RPM for 10 min and the UV/vis absorption of the supernatant was measured by a microplate reader. The obtained absorption value was used to calculate the maximum water solubility of the tested compound. In case the absorption value of the supernatant was higher than the calibration curve range, the supernatant was diluted with a 5% DMSO/water solution to match the calibration curve.

[9] = Human plasma stability; assay type: in vitro ADME; conditions: percentage of the remaining compound after 120 min incubation, 1 μM
Procedure: Compound 33 was incubated with human pooled plasma (Batch S00G71, Biowest, France). Briefly, compounds were dissolved in DMSO to produce stock sample solutions. 10 μL of stock solution was added to 990 μL of human plasma to initiate the reaction. […] The reactions were stopped by transferring 200 μL of incubate to 200 μL of acetonitrile containing the internal standard (IS; 67) at appropriate time points (0, 15, 30, 60 and 120 min) and centrifuged at 12 000 rpm for 5 min at 4 °C to precipitate the protein. After that, […] of supernatant was transferred to the vial and analyzed by LC-MS.
The HPLC system used in this study was Dionex Ultimate 3000 UHPLC RS consisting of an RS pump, RS column compartment, RS autosampler and diode array detector controlled by Chromeleon (version 7.2.9. build 11323) software (Thermo Fisher Scientific, Germering, Germany) connected to a Q Exactive Plus Orbitrap mass spectrometer with Thermo Xcalibur (version 3.1.66.10.) software (Thermo Fisher Scientific, Bremen, Germany). […]
For the determination of plasma stability, the percentage of the remaining compound was calculated from the ratio between peak area ratios (compound peak area/internal standard peak area) obtained at incubation times 0 and 120 min.

[10] = tested on: recombinant AChE (hAChE, E.C. 3.1.1.7); design: method as in PMID 32455879, PMID 36152726; conditions: template alkaloid, Fig. 1; cited from earlier work

T1 sequence (P06276 29-602): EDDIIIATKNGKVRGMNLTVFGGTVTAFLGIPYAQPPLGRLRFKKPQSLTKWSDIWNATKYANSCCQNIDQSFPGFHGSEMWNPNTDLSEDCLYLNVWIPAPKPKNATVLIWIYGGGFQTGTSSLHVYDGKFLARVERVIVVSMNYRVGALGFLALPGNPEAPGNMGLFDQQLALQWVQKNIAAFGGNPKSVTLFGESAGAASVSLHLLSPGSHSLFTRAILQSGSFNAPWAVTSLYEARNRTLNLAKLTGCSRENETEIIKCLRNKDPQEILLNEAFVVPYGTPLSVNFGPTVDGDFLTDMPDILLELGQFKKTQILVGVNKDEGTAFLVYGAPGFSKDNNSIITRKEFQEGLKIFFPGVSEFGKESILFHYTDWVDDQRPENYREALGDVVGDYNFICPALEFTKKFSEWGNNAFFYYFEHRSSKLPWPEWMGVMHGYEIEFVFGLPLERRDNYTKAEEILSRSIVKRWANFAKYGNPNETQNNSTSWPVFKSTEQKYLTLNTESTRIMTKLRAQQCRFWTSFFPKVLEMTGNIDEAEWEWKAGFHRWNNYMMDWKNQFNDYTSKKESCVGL
Sequence of hBChE (P06276 29-602): as above

C=CCOc1ccc(CCN(CC=C)Cc2ccc(OC)c(OCc3ccccc3)c2)cc1 [Compound 1, reference compound]
IC50 at 24 h [1]: > 125 µM

Oc1ccc(CCNCc2cccc(OCc3ccccc3)c2)cc1 [Compound 4, 4-[2-({[3-(Benzyloxy)phenyl]methyl}amino)ethyl]phenol]
IC50 at 24 h [1]: 21 ± 2.4 µM | Pe ± SEM [2]: 14.0 ± 0.4 ×10^−6 cm s^−1 | BBB penetration estimation CNS (+/−) [2]: CNS + (CNS (+) (high BBB permeation predicted): Pe (×10^−6 cm s^−1) > 4.0) | IC50 [3]: 0.193 ± 0.055 µM | inhibition at 10 µM [3]: 96 ± 0.8% | IC50 at 24 h [4]: 60 ± 4 µM | Safety index [5]: 310

COc1ccccc1CCNCc1cccc(OCc2ccccc2)c1 [Compound 5, {[3-(Benzyloxy)phenyl]methyl}[2-(2-methoxyphenyl)ethyl]amine]
IC50 at 24 h [1]: 16 ± 2.8 µM | Pe ± SEM [2]: 6.2 ± 0.7 ×10^−6 cm s^−1 | BBB penetration estimation CNS (+/−) [2]: CNS + (CNS (+) (high BBB permeation predicted): Pe (×10^−6 cm s^−1) > 4.0) | IC50 [3]: 0.4 ± 0.1 µM | inhibition at 10 µM [3]: 94 ± 0.4% | IC50 at 24 h [4]: 52 ± 10 µM | Safety index [5]: 130

CC(CNCc1cccc(OCc2ccccc2)c1)c1ccccc1 (centres unmarked) [Compound 18, {[3-(Benzyloxy)phenyl]methyl}(2-phenylpropyl)amine]
IC50 at 24 h [1]: 36 ± 1.4 µM | Pe ± SEM [2]: 8.1 ± 0.6 ×10^−6 cm s^−1 | BBB penetration estimation CNS (+/−) [2]: CNS + (CNS (+) (high BBB permeation predicted): Pe (×10^−6 cm s^−1) > 4.0) | IC50 [3]: 0.188 ± 0.023 µM | inhibition at 10 µM [3]: 96 ± 0.3% | IC50 at 24 h [4]: 55 ± 6.9 µM | Safety index [5]: 290

Oc1ccc(CCNCc2ccc(OCc3ccccc3)cc2)cc1 [Compound 28, 4-[2-({[4-(Benzyloxy)phenyl]methyl}amino)ethyl]phenol]
IC50 at 24 h [1]: 13 ± 1.2 µM | Pe ± SEM [2]: 10.0 ± 0.5 ×10^−6 cm s^−1 | BBB penetration estimation CNS (+/−) [2]: CNS + (CNS (+) (high BBB permeation predicted): Pe (×10^−6 cm s^−1) > 4.0) | IC50 [3]: 0.171 ± 0.063 µM | inhibition at 10 µM [3]: 97 ± 0.3% | IC50 at 24 h [4]: 85 ± 12 µM | Safety index [5]: 500

CCCN(CCc1ccc(O)cc1)Cc1ccc(OCc2ccccc2)cc1 [Compound 33, 4-[2-({[4-(Benzyloxy)phenyl]methyl}(propyl)amino)ethyl]phenol]
microsomal CLint at 0.75 h, 3 µM ([6]; pH 7.4): 161 µL/min/mg | half-life at 0.75 h, 3 µM ([6]; pH 7.4, up to 45 min incubation, read-out: HLM T½): 8.62 min | IC50 at 24 h [1]: 38 ± 3.5 µM | Ki ([7]; enzyme–inhibitor dissociation constant, nonlinear regression): 0.182 ± 0.028 µM | Ki′ ([7]; enzyme–substrate–inhibitor dissociation constant, nonlinear regression): 1.619 ± 0.315 µM | type of enzyme inhibition ([7]; sum-of-squares F-test, p < 0.0002, Lineweaver–Burk plot): mixed inhibition pattern | solubility at 10 min [8]: 267 µM (≈ 100 µg/mL) | Pe ± SEM [2]: 11.0 ± 2.2 ×10^−6 cm s^−1 | BBB penetration estimation CNS (+/−) [2]: CNS + (CNS (+) (high BBB permeation predicted): Pe (×10^−6 cm s^−1) > 4.0) | IC50 [3]: 0.167 ± 0.018 µM | inhibition at 10 µM [3]: 95 ± 1.1% | IC50 at 24 h [4]: 93 ± 11 µM | Plasma stability [9]: 94.5% | Safety index [5]: 560

CN(CCc1ccc(O)cc1)Cc1cc2c(cc1-c1cccc3c1N(C)CC3)OCO2 [carltonine B]
IC50 [10]: > 100 µM
